From PubChem BioAssay (NCI)
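Cells were grown in 96-well plates and exposed to each compound for 48 hours at five concentrations; endpoints were interpolated linearly between bracketing concentrations, or set to the highest concentration if not reached. At the GI50, growth is halved. TGI denotes the concentration required for complete inhibition of growth.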

Experiments:
Assay in all cases: DTP human tumour cell line panel, 48 h
UACC-62 melanoma = system: UACC-62 melanoma
HCT-15 colon = system: HCT-15 colon
ACHN renal = system: ACHN renal
DMS 114 small cell lung = system: DMS 114 small cell lung
LXFL 529 NSCLC = system: LXFL 529 NSCLC
SF-295 CNS = system: SF-295 CNS
SW-620 colon = system: SW-620 colon
SK-MEL-28 melanoma = system: SK-MEL-28 melanoma
SNB-75 CNS = system: SNB-75 CNS
OVCAR-5 ovarian = system: OVCAR-5 ovarian

Structure (SMILES) | TGI (UACC-62 melanoma) [µM] | TGI (HCT-15 colon) [µM] | TGI (ACHN renal) [µM] | TGI (DMS 114 small cell lung) [µM] | TGI (LXFL 529 NSCLC) [µM] | TGI (SF-295 CNS) [µM] | TGI (SW-620 colon) [µM] | TGI (SK-MEL-28 melanoma) [µM] | TGI (SNB-75 CNS) [µM] | TGI (OVCAR-5 ovarian) [µM] | GI50 (UACC-62 melanoma) [µM] | GI50 (HCT-15 colon) [µM] | GI50 (ACHN renal) [µM] | GI50 (SF-295 CNS) [µM] | GI50 (SW-620 colon) [µM] | GI50 (SK-MEL-28 melanoma) [µM] | GI50 (SNB-75 CNS) [µM] | GI50 (OVCAR-5 ovarian) [µM]
COC(=O)C1(O)c2ccccc2N=C2C1CCN2C (stereo not drawn) | > 100 | > 100 | > 100 | > 100 | > 100 | > 100 | > 100 | > 100 | 87.8 | > 100 | – | – | – | – | – | – | – | –
CC1(C)CC(N2CCN(C3CC(C)(C)NC(C)(C)C3)CC2)CC(C)(C)N1 | > 100 | > 100 | > 100 | > 100 | > 100 | > 100 | > 100 | > 100 | > 100 | > 100 | – | – | – | – | – | – | – | –
COC(=O)C1=C(\O)C[C@@]2(C)CC[C@@H](C(=O)OC)C2C/C=C\1C(=O)OC (stereo partly drawn) | > 100 | > 100 | > 100 | > 100 | > 100 | > 100 | > 100 | > 100 | > 100 | > 100 | – | – | – | – | – | – | – | –
CCCCCCCCCCCC(=O)OC(COC(N)=O)COc1ccc(Cl)cc1 (stereo not drawn) | 41.3 | 91.3 | > 100 | 33.1 | 45.2 | 40 | 63 | 36.2 | > 100 | – | – | – | – | – | – | – | – | –
Cc1ccc(NC(=O)C(=O)CC(=O)c2ccccc2)cc1C | > 100 | > 100 | > 100 | > 100 | > 100 | > 100 | > 100 | > 100 | > 100 | > 100 | – | – | – | – | – | – | – | –
COC(=O)NC(=O)c1cn(C2CCCCC2)c(=O)[nH]c1=O | > 100 | > 100 | > 100 | > 100 | > 100 | > 100 | > 100 | > 100 | > 100 | > 100 | – | – | – | – | – | – | – | –
N#CC1C(=O)NC(=O)C1=O (stereo not drawn) | > 100 | > 100 | > 100 | > 100 | > 100 | > 100 | > 100 | > 100 | > 100 | > 100 | – | – | – | – | – | – | – | –
O=C(/C=C/c1ccc(O)cc1)c1cc(Cl)ccc1O | > 100 | – | > 100 | 67.4 | > 100 | > 100 | > 100 | > 100 | > 100 | – | – | – | – | – | – | – | – | –
O=C1c2ccccc2C(=O)c2c1ccc1c2N=C(c2ccc(Br)cc2)CC(c2cccc3ccccc23)N1 (stereo not drawn) | > 100 | > 100 | > 100 | > 100 | > 100 | > 100 | > 100 | > 100 | > 100 | > 100 | – | – | – | – | – | – | – | –
O=C(O)COc1ccc(C(=O)/C(SS/C(C(=O)c2ccc(OCC(=O)O)c(Cl)c2Cl)=C2\C=C(c3ccccc3Cl)SS2)=C2/C=C(c3ccccc3Cl)SS2)c(Cl)c1Cl | 69.5 | > 54.6 | > 68.9 | 26.1 | 19.9 | > 100 | > 56.5 | > 100 | > 100 | > 100 | – | – | – | – | – | – | – | –
Cn1cnc([N+](=O)[O-])c1Sc1nc2ccc([N+](=O)[O-])cc2[nH]1 | 28.2 | 38.8 | > 100 | – | 26.9 | > 100 | > 100 | 37.6 | 81.8 | > 100 | – | – | – | – | – | – | – | –
O=C1CC[C@@H](NC(=O)Cc2ccccc2)C(=O)N1 | > 100 | – | > 100 | – | > 100 | > 100 | > 100 | > 100 | > 100 | > 100 | – | – | – | – | – | – | – | –
N[C@@H](CSSC[C@H](N)C(=O)N1CCn2cc(-c3ccccc3)nc2[C@@H]1CC1CCCCC1)C(=O)N1CCn2cc(-c3ccccc3)nc2[C@@H]1CC1CCCCC1 | 2.32 | 3.71 | 3.81 | – | – | 3.41 | 3.36 | 1.96 | 3.3 | 6.39 | 0.843 | 1.82 | 1.77 | 1.83 | 1.24 | 0.529 | 1.79 | 2.23
N#Cc1c(N)c(C#N)c2c(c1-c1ccc(Cl)cc1)COc1ccc(F)cc1-2 | > 50 | > 50 | > 50 | – | – | > 50 | > 50 | > 50 | > 50 | > 50 | 46.4 | 43.8 | 19.7 | 13.5 | 22.5 | > 50 | 25.6 | 48.6
CC(C)[C@H](C(=O)O[C@@H]1/C=C/C(=O)O[C@@H](C)CCC/C=C/[C@@H]2C[C@H](O)C[C@H]21)N(C)C | > 89.2 | 34.5 | > 100 | – | – | 25.1 | 21.8 | 28 | > 43.2 | > 89.5 | 16.8 | 14.1 | 35.2 | 4.85 | 6.35 | 5.01 | 5.8 | 20.4
COc1ccc2c(c1)C(=O)c1c-2c(N2CCN(C(=O)CCNCCNCCO)CC2)nc2ccccc12 | 38.2 | 33.9 | 30.8 | – | – | 39.3 | 5.17 | 23.4 | 37.4 | 34.4 | 21.3 | 17.1 | 16 | 18.8 | 2.26 | 9.22 | 18.6 | 18.3
COc1cc(/C=C/c2ccccn2)cc(OC)c1OC | > 10 | > 10 | > 10 | – | – | > 10 | > 10 | > 10 | > 10 | > 10 | – | – | – | – | – | – | – | –
Fc1ccc(C2C3CCOc4c(ccc5ccccc45)C3=NN2c2ccccc2)cc1 (stereo not drawn) | > 100 | > 100 | > 100 | – | – | > 100 | > 100 | > 100 | > 100 | > 100 | > 66.2 | 9.34 | 88.6 | 20.7 | > 100 | > 88.7 | > 78.7 | > 100
COc1cc(Cn2c(SCC(=O)Nc3ccc(Cl)cc3)nc3ccccc3c2=O)cc(OC)c1OC | 37.1 | > 100 | 11.8 | – | – | 18.4 | > 100 | 50.9 | 4.89 | > 100 | 6.29 | 17 | 3.15 | 5.54 | 31.8 | 11.4 | 1.58 | 14.8
